A melting point compilation (Tetko et al.)

melting point [°C] | Structure (SMILES)
108 to 110 | Cc1ccccc1SCC(=O)O
212 to 214 | C=CCn1c(S)nc2sccc2c1=O
122 to 124 | Brc1cnc(NCc2ccncc2)nc1
105 to 107 | Clc1nc(CN2CCOCC2)nc2scc(-c3cccs3)c12
210 to 212 | O=C(O)C(NC1CC1)c1ccc(O)cc1 (configuration not stated)
247 to 249 | O=C(COc1ccccc1)Nc1cc(Cl)ccc1C(=O)O
120 to 122 | Cc1ccc(C)c(S(=O)(=O)Oc2ccccc2C(=O)O)c1
227 to 229 | O=c1[nH]c(CCl)nc2scc(-c3ccccc3)c12
89 to 91 | NC(=NO)C1CCCCC1
127 to 129 | Cc1cc(N)c(N)cc1C
179 to 181 | Sc1nnc(N2CCCC2)s1
220 to 222 | CN1C(=O)N(CC(=O)O)C(=O)C12CCCCC2
183 to 185 | NS(=O)(=O)c1cccnc1Cl
161 to 163 | Nc1ccc(Cl)c(S(N)(=O)=O)c1
108 to 110 | Sc1nnc(C2CC2)s1
189 to 191 | COc1ccc(S(=O)(=O)N2CCOCC2)cc1N
78 to 80 | COc1ccc(C2CCCCC2=O)cc1F (configuration not stated)
77 to 79 | CC1CC(C)(C)NC1=O (configuration not stated)
139 to 141 | O=Cc1cc[nH]n1
163 to 165 | NNC(=O)NCc1ccc(Cl)cc1
239 to 241 | COC(=O)c1cc(Cl)c(=O)[nH]c1C
144 to 146 | C/C(=N/O)c1cnn(C)c1
51 to 53 | O=C(O)C1CC1c1ccco1 (configuration not stated)
102 to 104 | O=C(CCl)Nc1cccc(Oc2ccccc2)c1

melting point [°C] | Structure (SMILES)
154 to 156 | O=C(O)c1cc(Br)cc(S(=O)(=O)Cl)c1
131 to 133 | Cc1ccc(C(=O)Nc2cccc(CN)c2)cc1
49 to 51 | CNS(N)(=O)=O
123 to 125 | CN(C)C(=O)N1CCCC(C(=O)O)C1 (configuration not stated)
150 to 152 | CC(=O)N(c1ccccc1)c1nc(C=O)cs1
138 to 140 | CCOC(=O)c1cn2c(Br)ccc2cn1
188 to 190 | Cc1ccc(C)c(Sc2ncccc2C(=O)O)c1
199 to 201 | CC(C)(C)Nc1cc(C(=O)O)c(N)cc1F
219 to 221 | NS(=O)(=O)c1cc(Br)c(Cl)c(C(=O)O)c1
55 to 57 | COc1ccc(COCc2cccc(N)c2)cc1
169 to 171 | Nc1ccc([N+](=O)[O-])c(Br)c1
132 to 134 | NC(=O)C1CCCC(N)C1 (configuration not stated)
152 to 154 | CCOC(=O)c1c(-c2ccccc2)oc2ccc(O)cc12
95 to 97 | CC(Oc1cccc(CO)c1)C(=O)O (configuration not stated)
78 to 80 | CCOc1ccc(S(=O)(=O)Cl)cc1-c1ccccc1
165 to 167 | Cc1ccsc1-c1nsc(N)n1
154 to 156 | CCN(CC)c1ccc(C(=O)O)cn1
142 to 144 | NC(=O)c1ccc(N)cc1N1CCCCC1
184 to 186 | O=C(O)CCc1ncc(-c2ccccc2Cl)o1
36 to 38 | O=S(=O)(CCCBr)c1ccc(F)cc1
176 to 178 | COc1ccccc1NS(=O)(=O)c1cc(C(=O)O)ccc1Cl
212 to 214 | O=C(O)C=Cc1ccc(SC(F)(F)F)cc1
183 to 185 | NC(=O)c1ccccc1I
172 to 174 | Nc1nc(-c2ccsc2)ns1

melting point [°C] | Structure (SMILES)
149 to 151 | CCC(Nc1nnnn1-c1ccccc1)C(=O)O (configuration not stated)
181 to 183 | CS(=O)Cc1cccc(C(=O)O)c1 (configuration not stated)
183 to 185 | NC(CC1C(=O)Nc2ccccc21)=NO (configuration not stated)
142 to 144 | CCOC(=O)/C(C#N)=C\Nc1ccc(F)c(F)c1F
74 to 76 | CNC(=S)NCc1ccco1
41 to 43 | CC1CC(C)CN(S(=O)(=O)Cl)C1 (configuration not stated)
187 to 189 | O=C(O)c1cnc(C2CC2)s1
126 to 128 | COC(C)c1nc(C)c(C(=O)O)s1 (configuration not stated)
179 to 181 | CC(C)(C)C(=O)N1CCCC(C(=O)O)C1 (configuration not stated)
57 to 59 | CCOC(=O)C(=O)c1nccn1Cc1ccccc1
226 to 228 | CCCc1nnc(S)n1CC(=O)O
81 to 83 | COc1ccc(OC)c(C(F)(F)C(=O)O)c1
95 to 97 | Cn1nc(Br)c(=O)n(C)c1=O
149 to 151 | CCc1c(C)nn(-c2cccc(C(=O)O)c2)c1C
166 to 168 | O=C(O)C1CCCCS1(=O)=O (configuration not stated)
139 to 141 | Cc1cc(Br)cc2cc(C#N)oc12
134 to 136 | CNc1c(F)cccc1C(=O)O
76 to 78 | NC(=O)C1CCCO1 (configuration not stated)
179 to 181 | COc1ccc(-c2cc3ncnc(Cl)c3s2)cc1
269 to 271 | O=c1nncc2[nH]cccc1-2
165 to 167 | O=C(O)C1CCN(c2ccc(Cl)c(Cl)c2)C1=O (configuration not stated)
203 to 205 | Cn1ccnc1SCC(=O)Nc1ccccc1C(=O)O
268 to 270 | Cc1ccc(C(=O)O)cc1NC(=O)c1ccccc1F
180 to 182 | O=C(O)CCc1ncc(-c2ccccc2Br)o1

melting point [°C] | Structure (SMILES)
184 to 186 | O=S(=O)(c1ccc(N2CCNCC2)nc1)N1CCOCC1
135 to 137 | CC(=O)c1cccc(NC(=O)OCC(F)(F)F)c1
92 to 94 | CC(Cl)C(=O)Nc1ccccc1C(F)(F)F (configuration not stated)
205 to 207 | CCOC(=O)Nc1nnc(S)s1
69 to 71 | Nc1cc(-c2ccccc2Cl)no1
185 to 187 | Nc1nc2ncccn2n1
249 to 251 | O=C(O)c1cccc(S(=O)(=O)Nc2ccc3c(c2)OCO3)c1
243 to 245 | Cc1ccc2oc(C(=O)O)cc2c1
163 to 165 | O=C(O)C1CCCN(C(=O)Nc2ccccc2)C1 (configuration not stated)
216 to 218 | C#CCOc1ccc(C(=O)O)cc1
236 to 238 | NNC(=O)Nc1ccc(Br)cc1
72 to 74 | NCCCCc1cn[nH]c1
178 to 180 | Cc1cc(C(=O)NC2CCCCC2)ccc1N
181 to 183 | COc1ccccc1NS(=O)(=O)c1ccc(NN)c([N+](=O)[O-])c1
209 to 211 | NNC(=O)c1ccc(Cl)cc1O
75 to 77 | CC(C)c1cc(NC(=O)CCl)on1
204 to 206 | NC(=O)c1cnc(Cl)c(Cl)c1
283 to 285 | CCNc1nc(S)nc2ccccc12
279 to 281 | Cc1c(C(=O)O)oc2c(Br)cc(Cl)cc12
132 to 134 | O=C(O)c1ccc(Oc2cccc(Cl)c2)cc1
155 to 157 | O=C(O)CCC(=O)N1CCN(S(=O)(=O)c2ccccc2)CC1
162 to 164 | COc1cc(C(=O)O)ccc1OCC(=O)N1CCOCC1
207 to 209 | O=C1CCc2cc(C(=O)c3ccccc3)ccc2N1
103 to 105 | Oc1ccccc1CNc1ccc(F)cc1

melting point [°C] | Structure (SMILES)
99 to 101 | Nc1ccn(-c2nccs2)n1
213 to 215 | O=c1[nH]c2cnccc2n1Cc1ccccc1
203 to 205 | CCn1nc(C(=O)O)ccc1=O
51 to 53 | OCC1(NCc2ccccc2)CCC1
149 to 151 | CC(=O)c1ccc(N2CCOC2=O)cc1
73 to 75 | CC1CN(S(=O)(=O)CCN)CC(C)O1 (configuration not stated)
37 to 39 | ClCc1nc(-c2ccccc2Cl)no1
143 to 145 | O=C(O)C1(c2cccc(Br)c2)CC1
125 to 127 | Cc1cc(O)n(C(C)(C)C)n1
139 to 141 | O=C(O)Cc1c[nH]c2ccc(F)cc12
108 to 110 | CC(C)(C)OC(=O)Nc1cocn1
187 to 189 | COc1cc2nc(C)oc(=O)c2cc1OC
66 to 68 | COc1ccccc1C(C)N(C)C(=O)CCl (configuration not stated)
114 to 118 | O=C(O)C1Cc2cc(Cl)ccc2O1 (configuration not stated)
106 to 108 | FC(F)(F)c1ccc(OCc2ccc(Cl)nc2)cc1
37 to 39 | CCOc1ccc(CO)cc1OCC
134 to 136 | CN(C)C(=O)c1cccc(C(=O)O)c1
78 to 80 | CCOC(=O)C1CC1c1ccc(OC)cc1 (configuration not stated)
159 to 161 | Cc1ncsc1-c1nc(CN)no1
181 to 183 | NC(=S)c1cccc(NC(=O)C2CC2)c1
94 to 96 | COC(=O)c1c(N)sc(C)c1-c1ccc(Cl)cc1Cl
68 to 70 | OCc1ccc(Oc2ccc(Br)cc2)c(F)c1
97 to 99 | CN(C)C(=O)Cc1ccc(N)cc1
216 to 218 | NC(=O)CNC(=O)c1ccc(N)cc1

melting point [°C] | Structure (SMILES)
109 to 111 | COc1ccc(NS(=O)(=O)c2cccc(N)c2)cc1
97 to 99 | NCc1ccc(N2CCS(=O)(=O)CC2)cc1
219 to 221 | Nc1nnc(-c2cccc(Cl)c2)[nH]1
81 to 83 | Nc1cnc(-c2ccccc2)nc1
207 to 209 | Cc1cc(C)c2nc(C3CC3)cc(C(=O)O)c2c1
141 to 143 | O=C(O)c1cnn2c1NCCC2
128 to 130 | CCN(c1ccccc1)S(=O)(=O)c1ccc(Cl)c(C(=O)O)c1
127 to 129 | COc1cccc(C(=O)c2c(N)sc3c2CCC3)c1
133 to 135 | CNC(=O)CC(N)=S
177 to 179 | Nn1c(S)nnc1C1CCOCC1
171 to 173 | Nc1nc2cc(F)c(F)cc2s1
68 to 70 | N#Cc1cc2ccccn2c1
185 to 187 | CC(=O)c1cccc(N(S(C)(=O)=O)S(C)(=O)=O)c1
150 to 152 | NC(=O)N1CCN(c2ccccc2F)CC1
175 to 177 | Nc1ccc(C(=O)NC2CCCCC2)cc1
134 to 136 | CC(=O)Nc1cc(N)ccc1F
110 to 112 | COc1cc(/C=C/C(=O)O)ccc1OCc1c(C)noc1C
127 to 129 | Nc1cccc(S(=O)(=O)Nc2ccc(Cl)cc2)c1
122 to 124 | Clc1nc(-c2ccsc2)nc2ccccc12
114 to 116 | CSc1cccc(Cl)c1C#N
104 to 106 | Cn1ncc2ccc(C#N)cc21

Structure (SMILES) | melting point [°C]
CC(=O)c1c(O)cc(C)oc1=O | 109 to 111
O=C1NCCN2CCCCC12 (configuration not stated) | 134 to 136
O=C(CCl)N1CCCCCCC1 | 66 to 68
CC1(C)CC(C)(C)c2cc(O)ccc21 | 99 to 101
O=C(CN=C=S)NC1CC1 | 169 to 171
CC(C)(C)NC(=O)CCl | 75 to 77
